The text below walks through data of patent US10259810B2, “N-sulfonylated pyrazolo[3,4-b]pyridin-6-carboxamides and method of use” (AbbVie S.à.r.l., priority 2015, dated 2019).

One assay concerns the target T1, ΔF508-CFTR (Homo sapiens, UniProt P13569, DEL508-508).
T1 construct: host or cells: CFBE41o-, doxycycline-inducible
The assay is described as follows: CFTR cell surface levels using HRP-tagged ΔF508-CFTR expressing CFBE cells, intrinsic corrector capacity. In kind it is cell-based. Details: % Activation: concentration or dose not given beside the values. Conditions: HRP-tagged ΔF508-CFTR expressing CFBE41o- cells, compound alone (intrinsic corrector capacity), 20 hours at 33° C.; for EC50: read-out: EC50. The method in brief: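 Surface ΔF508-CFTR was measured as HRP chemiluminescence from an extracellular-loop-4 tag, expressed as percent activity between DMSO and a […] corrector control.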

The target in the next assay is T2, CFTR ΔF508 (Homo sapiens, UniProt P13569, DEL508-508).
T2 construct: bronchial epithelial cells isolated from CF patients homozygous for the CFTR ΔF508 mutation; McGill University; Asterand; University of North Carolina hAEC-CF; host or cells: primary human bronchial epithelial cells from CF patients homozygous for ΔF508, differentiated at air-liquid interface
Put plainly: Chronic TECC assay, primary bronchial epithelial cells of CF patients homozygous for CFTR ΔF508 (corrector, co-corrector and potentiator). In kind it is cell-based. Conditions: chronic TECC, Ieq = calculations based on the maximum current. The method in brief:
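Primary bronchial epithelial cells from ΔF508-homozygous CF patients on collagen IV-coated Transwells were chronically treated with test compound plus corrector and potentiator, which were re-added before recording. Ieq was derived from PD and Rt in NaCl-Ringer, pH 7.4, at 37° C, with apical amiloride and bilateral forskolin, recorded every 2 min over 20 min. Ieq increase was normalized to controls, and EC50 was taken from per-well concentrations.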

What is called EC50 is the concentration at which the effect is half-maximal.

Each structure is given as a SMILES string. Where only a bound is given, the exact number is not on record here.

T1 sequence (P13569 with tags, fused parts or gaps DEL508-508): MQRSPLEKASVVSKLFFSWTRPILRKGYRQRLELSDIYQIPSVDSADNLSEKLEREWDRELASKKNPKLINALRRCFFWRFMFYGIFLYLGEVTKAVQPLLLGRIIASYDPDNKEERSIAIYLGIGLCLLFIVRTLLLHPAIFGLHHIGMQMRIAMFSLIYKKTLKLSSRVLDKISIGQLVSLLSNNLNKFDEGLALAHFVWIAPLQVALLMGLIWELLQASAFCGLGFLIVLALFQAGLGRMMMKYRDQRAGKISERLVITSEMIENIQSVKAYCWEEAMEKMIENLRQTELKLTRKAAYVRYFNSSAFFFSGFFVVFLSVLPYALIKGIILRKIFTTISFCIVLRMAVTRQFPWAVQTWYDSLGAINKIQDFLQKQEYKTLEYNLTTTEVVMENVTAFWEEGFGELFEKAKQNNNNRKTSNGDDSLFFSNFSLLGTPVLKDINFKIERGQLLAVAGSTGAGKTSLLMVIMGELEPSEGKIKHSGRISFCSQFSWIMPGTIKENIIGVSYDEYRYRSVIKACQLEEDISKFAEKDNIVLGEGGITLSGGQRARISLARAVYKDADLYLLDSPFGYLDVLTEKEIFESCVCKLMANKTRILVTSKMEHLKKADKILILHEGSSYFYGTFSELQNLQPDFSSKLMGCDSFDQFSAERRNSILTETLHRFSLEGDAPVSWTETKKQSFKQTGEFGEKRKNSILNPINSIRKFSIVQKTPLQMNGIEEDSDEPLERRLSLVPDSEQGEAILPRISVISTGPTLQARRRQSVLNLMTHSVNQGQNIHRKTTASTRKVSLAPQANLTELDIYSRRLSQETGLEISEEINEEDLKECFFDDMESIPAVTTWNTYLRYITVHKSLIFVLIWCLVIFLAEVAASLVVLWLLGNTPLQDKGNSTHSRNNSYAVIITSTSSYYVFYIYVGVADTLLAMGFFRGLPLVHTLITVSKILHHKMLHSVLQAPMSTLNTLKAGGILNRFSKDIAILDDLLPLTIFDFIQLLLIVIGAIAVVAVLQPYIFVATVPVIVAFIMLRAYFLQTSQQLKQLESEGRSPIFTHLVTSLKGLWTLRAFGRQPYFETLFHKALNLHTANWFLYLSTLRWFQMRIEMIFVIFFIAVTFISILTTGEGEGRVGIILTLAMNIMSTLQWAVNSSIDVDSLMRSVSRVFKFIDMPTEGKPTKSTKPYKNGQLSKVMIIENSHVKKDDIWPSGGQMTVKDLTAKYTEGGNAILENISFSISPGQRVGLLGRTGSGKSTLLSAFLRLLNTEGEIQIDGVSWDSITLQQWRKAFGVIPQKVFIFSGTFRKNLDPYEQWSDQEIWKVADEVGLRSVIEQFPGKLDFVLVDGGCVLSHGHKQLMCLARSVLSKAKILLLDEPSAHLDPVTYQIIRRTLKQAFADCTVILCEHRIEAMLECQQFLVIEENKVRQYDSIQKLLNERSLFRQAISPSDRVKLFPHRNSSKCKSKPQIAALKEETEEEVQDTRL
T2 sequence (P13569 with tags, fused parts or gaps DEL508-508): as above

As for `CC(C)c1nn(-c2cccc(N3CCC3)c2)c2nc(C(=O)NS(C)(=O)=O)cc(-c3ccc(N4CCOCC4)cc3)c12` [Compound 10, 1-[3-(azetidin-1-yl)phenyl]-N-(methanesulfonyl)-4-[4-(morpholin-4-yl)phenyl]-3-(propan-2-yl)-1H-pyrazolo[3,4-b]pyridine-6-carboxamide], at ΔF508-CFTR, the “% Activation” value stood at 418.25% and the EC50 came to 572 nM.

Regarding `CC(C)c1nn(C2CCCCC2)c2nc(C(=O)NS(C)(=O)=O)cc(-c3cnc(N4CCOCC4)nc3)c12` [Compound 11, 1-cyclohexyl-N-(methanesulfonyl)-4-[2-(morpholin-4-yl)pyrimidin-5-yl]-3-(propan-2-yl)-1H-pyrazolo[3,4-b]pyridine-6-carboxamide], at ΔF508-CFTR, the “% Activation” value turned out to be 164.7% and the EC50 came to 557 nM.

Regarding `Cc1nn(-c2ccccc2)c2nc(C(=O)NS(C)(=O)=O)cc(N3CCCCC3)c12` [Compound 13, N-(methanesulfonyl)-3-methyl-1-phenyl-4-(piperidin-1-yl)-1H-pyrazolo[3,4-b]pyridine-6-carboxamide], at ΔF508-CFTR, the “% Activation” value turned out to be 153.85% and the EC50 was determined as 2360 nM.

`CS(=O)(=O)NC(=O)c1cc(-c2ccc(N3CCC(C#N)CC3)nc2)c2c(C3CCC3)nn(C3CCCCC3)c2n1` [Compound 104, 4-[6-(4-cyanopiperidin-1-yl)pyridin-3-yl]-3-cyclobutyl-1-cyclohexyl-N-(methanesulfonyl)-1H-pyrazolo[3,4-b]pyridine-6-carboxamide]: on ΔF508-CFTR, the “% Activation” value was determined as 239.6% and the EC50 is 497 nM. In addition, the EC50 on CFTR ΔF508 (read-out: EC50 (nM) (Ieq*)) was less than 30 nM. The “% Activity at 1 μM (Ieq*)” value on CFTR ΔF508 (test compound at 1 μM) is 720%.
